Reference: US8993304B2, “Chloramphenicol resistance selection in Bacillus licheniformis” (Novozymes A/S, priority 2006, dated 2015)

How the values were obtained:
Assay type in all cases: cell-based, Bacillus licheniformis
[1] = test system: PP1897-3; experiment: Test of chloramphenicol resistance, growth in liquid TY+glucose culture; details: 30° C.
Method: (§1) Strains PP1897-3, SJ8071 (=PP1897-3 delta cat), ATCC14580, and SJ8344 (=ATCC14580 delta cat) were propagated in 10 ml TY (WO 94/14968, p16) supplemented with 0.5% glucose at 30° C. overnight, with shaking. 50 microliter aliquots were used to inoculate further 10 ml TY+glucose cultures, supplemented with chloramphenicol (cam) to concentrations: 1 microgram/ml, 2 microgram/ml, 3 microgram/ml, 6 microgram/ml, 9 microgram/ml, or 12 microtram/ml, and incubation with shaking continued at 30° C. Growth was scored by visual inspection of turbidity after approximately 7 hours (table 1), and again after overnight incubation (table 2).

[2] = test system: SJ8071 (=PP1897-3 delta cat); experiment: as above; details: 30° C.
Method: as §1

[3] = test system: ATCC14580; experiment: as above; details: 30° C.
Method: as §1

[4] = test system: SJ8344 (=ATCC14580 delta cat); experiment: as above; details: 30° C.
Method: as §1

[5] = test system: cat-deleted recipient strains; experiment: Transconjugant selection on chloramphenicol plates; details: cat-deleted recipients (SJ8071, SJ8344); donor SJ8000; chloramphenicol 6 microgram/ml; 30° C. overnight
Method: (§2) B. licheniformis strains PP1897-3, the cat-deleted derivative SJ8071, strain ATCC14580, and the cat-deleted derivative SJ8344 were used as recipients in conjugations with donor strain SJ8000, essentially as described before.
(§3) For each donor/recipient combination, donor and recipient colonies were scraped off overnight plates and mixed in a small volume of liquid TY medium, and equal volumes from this mixture was plated on each of two LBPGS plates with D-alanine. Following 6 hours incubation at 30° C., one plate was replicaplated onto LBPGS with erythromycin (2 microgram/ml), and the other plate replica plated onto LPPGS with chloramphenicol (6 microgram/ml). These plates were incubated at 30° C. overnight, then left at room temperature (20-25° C.) for further 3 days.

[6] = test system: recipient strains containing intact, chromosomal chloramphenicol resistance genes; experiment: Transconjugant selection on chloramphenicol plates; details: recipients with intact chromosomal cat (PP1897-3, ATCC14580); donor SJ8000; chloramphenicol 6 microgram/ml; 30° C. overnight
Method: as §2, §3

[7] = test system: control strain; experiment: Growth on reisolation onto LPBSG plates with chloramphenicol; details: LPBSG plates with 10 mikrogram/ml chloramphenicol
Source text: (§4) 2 erythromycin sensitive and chloramphenicol sensitive strains were kept as SJ8071 (from donor SJ8039) and SJ8072 (from donor SJ8041).

[8] = test system: SJ8072; experiment: as above; details: SJ8072 deletion strain; LPBSG plates with 10 mikrogram/ml chloramphenicol
Source text: as §4

[9] = test system: SJ8071; experiment: as above; details: SJ8071 deletion strain; LPBSG plates with 10 mikrogram/ml chloramphenicol
Source text: as §4

[10] = 1 μg/ml cam, after 7 hours incubation
[11] = 1 μg/ml cam, after overnight incubation
[12] = 2 μg/ml cam, after 7 hours incubation
[13] = 2 μg/ml cam, after overnight incubation
[14] = 3 μg/ml cam, after 7 hours incubation
[15] = 3 μg/ml cam, after overnight incubation
[16] = 6 μg/ml cam, after 7 hours incubation
[17] = 6 μg/ml cam, after overnight incubation
[18] = 9 μg/ml cam, after 7 hours incubation
[19] = 9 μg/ml cam, after overnight incubation
[20] = 12 μg/ml cam, after 7 hours incubation
[21] = 12 μg/ml cam, after overnight incubation

O=C(N[C@H](CO)[C@H](O)c1ccc([N+](=O)[O-])cc1)C(Cl)Cl [cam, chloramphenicol]
−: Growth scored by visual inspection of turbidity [1, 16] | Growth scored by visual inspection of turbidity [1, 18] | Growth scored by visual inspection of turbidity [1, 20] | Growth scored by visual inspection of turbidity [2, 12] | Growth scored by visual inspection of turbidity [2, 14] | Growth scored by visual inspection of turbidity [2, 16] | Growth scored by visual inspection of turbidity [2, 18] | Growth scored by visual inspection of turbidity [2, 20] | Growth scored by visual inspection of turbidity [3, 16] | Growth scored by visual inspection of turbidity [3, 18] | Growth scored by visual inspection of turbidity [3, 20] | Growth scored by visual inspection of turbidity [4, 12] | Growth scored by visual inspection of turbidity [4, 14] | Growth scored by visual inspection of turbidity [4, 16] | Growth scored by visual inspection of turbidity [4, 18] | Growth scored by visual inspection of turbidity [4, 20]
No distinct transconjugant colonies: Transconjugant colonies using chloramphenicol selection [6]
++: Growth scored by visual inspection of turbidity [1, 10] | Growth scored by visual inspection of turbidity [1, 11] | Growth scored by visual inspection of turbidity [1, 12] | Growth scored by visual inspection of turbidity [1, 13] | Growth scored by visual inspection of turbidity [1, 15] | Growth scored by visual inspection of turbidity [1, 17] | Growth scored by visual inspection of turbidity [1, 19] | Growth scored by visual inspection of turbidity [2, 11] | Growth scored by visual inspection of turbidity [2, 13] | Growth scored by visual inspection of turbidity [2, 15] | Growth scored by visual inspection of turbidity [3, 10] | Growth scored by visual inspection of turbidity [3, 11] | Growth scored by visual inspection of turbidity [3, 13] | Growth scored by visual inspection of turbidity [3, 15] | Growth scored by visual inspection of turbidity [3, 17] | Growth scored by visual inspection of turbidity [3, 19] | Growth scored by visual inspection of turbidity [4, 11] | Growth scored by visual inspection of turbidity [4, 13] | Growth scored by visual inspection of turbidity [4, 15]
absolutely no growth: Growth when reisolated onto plates [8] | Growth when reisolated onto plates [9]
some growth: Growth when reisolated onto plates [7]
+: Growth scored by visual inspection of turbidity [1, 14] | Growth scored by visual inspection of turbidity [1, 21] | Growth scored by visual inspection of turbidity [2, 10] | Growth scored by visual inspection of turbidity [2, 17] | Growth scored by visual inspection of turbidity [2, 19] | Growth scored by visual inspection of turbidity [2, 21] | Growth scored by visual inspection of turbidity [3, 12] | Growth scored by visual inspection of turbidity [3, 14] | Growth scored by visual inspection of turbidity [3, 21] | Growth scored by visual inspection of turbidity [4, 10] | Growth scored by visual inspection of turbidity [4, 17] | Growth scored by visual inspection of turbidity [4, 19] | Growth scored by visual inspection of turbidity [4, 21]
Distinct transconjugant colonies: Transconjugant colonies using chloramphenicol selection [5]
